{
  "source": "patent US20250352539A1",
  "about": "“COMBINATION THERAPY FOR TREATING CANCER” (AstraZeneca AB, priority 2022, published 2025)",
  "assay_in_all_cases": "10-day Cell Titre Glo combination screen",
  "type_in_all_cases": "cell-based",
  "key": {"T47D": {"tested_on": "T47D", "conditions": "Homo sapiens; T47D breast; monotherapy; read-out: mono AC50", "description": "(§1) The Highest Single Agent (HSA) model is used to determine a combination's synergy score (and is based simply on the intuition that if a combination's effect exceeds the effect level of each of its constituents, there must be some combination interaction). Mathematically, the HSA model describes simple superposition of the single agent curves:\n(§2) where CX,Y are the concentrations of the X and Y compound, and IX and IY are inhibitions of the single agents at CX,Y. It is also useful to calculate a volume score (HSA Volume) between the data and the HSA surface to characterise the overall strength of combination effects. Empirically derived combination matrices are compared to their respective HSA additivity models constructed from experimentally collected single agent dose response curves. Summation of this excess additivity across the dose response matrix is referred to HSA Volume.\n(§3) Potency shifting can also be scored using combination index (CI). For a chosen iso-effect level (ICut), CI is calculated as: […]\n(§4) where (CX/ECX) for a particular data point is the ratio of the X compound's measured concentration to its effective concentration at the chosen effect level. The CI is a rough estimate of how much drug was needed in combination relative to the single agent doses required to achieve the chosen effect level. CI values in the range of 0.5-0.7 are typical for in vitro measurements of current clinical combinations. The CI error (σCI) is calculated using standard error propagation through the CI calculation based on the isobologram errors.\n(§5) This combination screen was a 10-day assay using Cell Titre Glo as the readout for viability.\n(§6) The assay was performed in 384 well plates, with 1 cell line and 4 drug-drug combinations per plate dosed in a 6×6 matrix. A day zero reading was measured to determine growth inhibition. GenedataScreener was used to input the raw values for every well, and the software was programmed to normalise the values to the day zero and DMSO control values.\n(§7) The CellTiter-Glo® Luminescent Cell Viability Assay is a homogeneous method to determine the number of viable cells in culture based on quantitation of the ATP present, which signals the presence of metabolically active cells. It relies on the properties of a proprietary thermostable luciferase (Ultra-Glo™ Recombinant Luciferase), which generates a stable “glow-type” luminescent signal and improves performance across a wide range of assay conditions.\n(§8) The following information was reported: Synergy scores (HSA); combination index values; AC50 (half-maximal activity concentration) monotherapy values."}, "NCI-H358": {"tested_on": "NCI-H358", "conditions": "Homo sapiens; NCI-H358 lung; monotherapy; read-out: mono AC50", "description": "as §1, §2, §3, §4, §5, §6, §7, §8"}, "NCI-H3122": {"tested_on": "NCI-H3122", "conditions": "monotherapy, read-out: mono AC50", "description": "as §1, §2, §3, §4, §5, §6, §7, §8"}, "NCI-H441": {"tested_on": "NCI-H441", "conditions": "Homo sapiens; NCI-H441 lung; monotherapy; read-out: mono AC50", "description": "as §1, §2, §3, §4, §5, §6, §7, §8"}, "LU99": {"tested_on": "LU99", "conditions": "Homo sapiens, Lu-99; LU99 lung; monotherapy; read-out: mono AC50", "description": "as §1, §2, §3, §4, §5, §6, §7, §8"}, "SK-BR-3": {"tested_on": "SK-BR-3", "conditions": "Homo sapiens; SK-BR-3 breast; monotherapy; read-out: mono AC50", "description": "as §1, §2, §3, §4, §5, §6, §7, §8"}, "MDA-MB-157": {"tested_on": "MDA-MB-157", "conditions": "Homo sapiens; MDA-MB-157 breast; monotherapy; read-out: mono AC50", "description": "as §1, §2, §3, §4, §5, §6, §7, §8"}, "HCC1143": {"tested_on": "HCC1143", "conditions": "Homo sapiens; HCC1143 breast; monotherapy; read-out: mono AC50", "description": "as §1, §2, §3, §4, §5, §6, §7, §8"}, "NCI-H1299": {"tested_on": "NCI-H1299", "conditions": "Homo sapiens; NCI-H1299 lung; monotherapy; read-out: mono AC50", "description": "as §1, §2, §3, §4, §5, §6, §7, §8"}, "NCI-H1792": {"tested_on": "NCI-H1792", "conditions": "Homo sapiens; NCI-H1792 lung; monotherapy; read-out: mono AC50", "description": "as §1, §2, §3, §4, §5, §6, §7, §8"}, "NCI-H1993": {"tested_on": "NCI-H1993", "conditions": "Homo sapiens; NCI-H1993 lung; monotherapy; read-out: mono AC50", "description": "as §1, §2, §3, §4, §5, §6, §7, §8"}, "EFM-19": {"tested_on": "EFM-19", "conditions": "Homo sapiens; EFM-19 breast; monotherapy; read-out: mono AC50", "description": "as §1, §2, §3, §4, §5, §6, §7, §8"}, "Calu-1": {"tested_on": "Calu-1", "conditions": "monotherapy, read-out: mono AC50", "description": "as §1, §2, §3, §4, §5, §6, §7, §8"}, "MCF7 T52": {"tested_on": "MCF7 T52", "conditions": "Homo sapiens; MCF7 T52 breast; monotherapy; read-out: mono AC50", "description": "as §1, §2, §3, §4, §5, §6, §7, §8"}, "NCI-H838": {"tested_on": "NCI-H838", "conditions": "Homo sapiens; NCI-H838 lung; monotherapy; read-out: mono AC50", "description": "as §1, §2, §3, §4, §5, §6, §7, §8"}, "HCC1954": {"tested_on": "HCC1954", "conditions": "Homo sapiens; HCC1954 breast; monotherapy; read-out: mono AC50", "description": "as §1, §2, §3, §4, §5, §6, §7, §8"}, "HCC1569": {"tested_on": "HCC1569", "conditions": "Homo sapiens; HCC1569 breast; monotherapy; read-out: mono AC50", "description": "as §1, §2, §3, §4, §5, §6, §7, §8"}, "NCI-H23": {"tested_on": "NCI-H23", "conditions": "Homo sapiens; NCI-H23 lung; monotherapy; read-out: mono AC50", "description": "as §1, §2, §3, §4, §5, §6, §7, §8"}, "NCI-H1395": {"tested_on": "NCI-H1395", "conditions": "monotherapy, read-out: mono AC50", "description": "as §1, §2, §3, §4, §5, §6, §7, §8"}, "MDA-MB-134IV": {"tested_on": "MDA-MB-134IV", "conditions": "MDA-MB-134IV breast; monotherapy; read-out: mono AC50", "description": "as §1, §2, §3, §4, §5, §6, §7, §8"}, "HCC1937": {"tested_on": "HCC1937", "conditions": "Homo sapiens; HCC1937 breast; monotherapy; read-out: mono AC50", "description": "as §1, §2, §3, §4, §5, §6, §7, §8"}, "NCI-H810": {"tested_on": "NCI-H810", "conditions": "Homo sapiens; NCI-H810 lung; monotherapy; read-out: mono AC50", "description": "as §1, §2, §3, §4, §5, §6, §7, §8"}, "NCI-H2009": {"tested_on": "NCI-H2009", "conditions": "Homo sapiens; NCI-H2009 lung; monotherapy; read-out: mono AC50", "description": "as §1, §2, §3, §4, §5, §6, §7, §8"}, "NCI-H1666": {"tested_on": "NCI-H1666", "conditions": "Homo sapiens; NCI-H1666 lung; monotherapy; read-out: mono AC50", "description": "as §1, §2, §3, §4, §5, §6, §7, §8"}},
  "note": "Read-outs that look alike come from different tables or passages of the source.",
  "data": [
    {"compound": "C[C@@H]1COCCN1c1cc(C2([S@](C)(=N)=O)CC2)nc(-c2ccnc3[nH]ccc23)n1", "note": "[AZD6738, 4-{4-[(3R)-3-Methylmorpholin-4-yl]-6-[1-((R)—S-methylsulfonimidoyl)cyclopropyl]pyrimidin-2-yl}-1H-pyrrolo[2,3-b]-pyridine]", "values": [
      {"measurement": "AC50", "setting": "T47D", "result": 6850, "unit": "nM"},
      {"measurement": "AC50", "setting": "NCI-H358", "result": 2670, "unit": "nM"},
      {"measurement": "AC50", "setting": "NCI-H3122; Homo sapiens, NCI-H3122, NCI-H3122 lung", "result": 3120, "unit": "nM"},
      {"measurement": "AC50", "setting": "NCI-H3122; NCI-H3122 lung", "result": 3210, "unit": "nM"},
      {"measurement": "AC50", "setting": "NCI-H441", "result": 2960, "unit": "nM"},
      {"measurement": "AC50", "setting": "LU99", "result": 581, "unit": "nM"},
      {"measurement": "AC50", "setting": "SK-BR-3", "result": 542, "unit": "nM"},
      {"measurement": "AC50", "setting": "MDA-MB-157", "result": 732, "unit": "nM"},
      {"measurement": "AC50", "setting": "HCC1143", "result": 460, "unit": "nM"},
      {"measurement": "AC50", "setting": "NCI-H1299", "result": 3180, "unit": "nM"},
      {"measurement": "AC50", "setting": "NCI-H1792", "result": 677, "unit": "nM"},
      {"measurement": "AC50", "setting": "NCI-H1993", "result": 2970, "unit": "nM"},
      {"measurement": "AC50", "setting": "EFM-19", "result": 14300, "unit": "nM"},
      {"measurement": "AC50", "setting": "Calu-1; Calu-1 lung", "result": 5600, "unit": "nM"},
      {"measurement": "AC50", "setting": "Calu-1; Homo sapiens, Calu-1, Calu-1 lung", "result": 3220, "unit": "nM"},
      {"measurement": "AC50", "setting": "MCF7 T52", "result": 1390, "unit": "nM"},
      {"measurement": "AC50", "setting": "NCI-H838", "result": 274, "unit": "nM"},
      {"measurement": "AC50", "setting": "HCC1954", "result": 2560, "unit": "nM"},
      {"measurement": "AC50", "setting": "HCC1569", "result": 957, "unit": "nM"},
      {"measurement": "AC50", "setting": "NCI-H23", "result": 221, "unit": "nM"},
      {"measurement": "AC50", "setting": "NCI-H1395; Homo sapiens, NCI-H1395, NCI-H1395 lung", "result": 3310, "unit": "nM"},
      {"measurement": "AC50", "setting": "NCI-H1395; NCI-H1395 lung", "result": 2900, "unit": "nM"},
      {"measurement": "AC50", "setting": "MDA-MB-134IV", "result": 5780, "unit": "nM"},
      {"measurement": "AC50", "setting": "HCC1937", "result": 570, "unit": "nM"},
      {"measurement": "AC50", "setting": "NCI-H810", "result": 3350, "unit": "nM"},
      {"measurement": "AC50", "setting": "NCI-H2009", "result": 1020, "unit": "nM"},
      {"measurement": "AC50", "setting": "NCI-H1666", "result": 767, "unit": "nM"}
    ]}
  ]
}
